Data reported in patent US10206989B2, “CDCA1 epitope peptides for Th1 cells and vaccines containing the same” (OncoTherapy Science, Inc., priority 2012, dated 2019).

Key:
Format in all cases: cell-based, human
Th cell clones = assay: Recognition of CDCA1 protein-loaded autologous DCs by Th clones (natural processing), IFN-gamma ELISPOT; details: DCs loaded with recombinant CDCA1 protein 50 micro g/ml
Description: The 6His-tagged recombinant whole CDCA1 proteins and truncated CDCA1 proteins that lack both CDCA1-derived Th epitopes recognized by CDCA1 (55-78) and CDCA1 (39-64)-specific Th cells were expressed by E. coli BL21 strains with a pET28a vector (Novagen) that has respective cDNA fragments. The truncated CDCA1 protein was used as control protein. Each recombinant protein was purified using a HisTrap FF column (GE Healthcare) according to the manufacturer's instruction. The purity of the proteins was verified by SDS-PAGE.
The immune response of Th cells to APCs pulsed with peptides and proteins were assessed by IFN-gamma ELISPOT assays (Human IFN-gamma ELISPOT kit, BD Biosciences) as described previously (Tomita Y et al. Cancer Sci.; 102: 697-705.). Briefly, the frequency of peptide-specific CD4^+ T cells producing interferon (IFN)-gamma per 3×10^4 bulk CD4^+ T cells upon stimulation with peptide-pulsed PBMCs (3×10^4/well), or 1×10^4 bulk CD4^+ T cells upon stimulation with peptide-pulsed HLA-DR-expressing L-cells (5×10^4/well) was analyzed. The frequency of cells producing interferon (IFN)-gamma per 1×10^5 CTLs upon stimulation with peptide-pulsed T2 cells (2×10^4/well) was also analyzed. Alternatively, 5×10^3 protein-loaded DCs were co-cultured with 2×10^4 CD4^+ T cell clones/well. […]

[1] = system: CDCA1-A24 (56-64)-specific CTLs; assay: In vitro cross-presentation assay with unfixed or fixed DCs, intracellular IFN-gamma; details: cross presented by unfixed DCs (DC+LP); peptide 16 micro M, 3 h pulse
Description: An HLA-A24^+ donor (HD2)-derived DCs were kept alive or fixed for 3 min in 0.1% glutaraldehyde (Sigma-Aldrich), pulsed with peptides (16 micro M) for 3 h, and washed 3 times. OK432 (0.1 KE/mL, Chugai Pharmaceutical Co, Tokyo, Japan) was added to induce the maturation of DCs during and after the peptide pulse. CDCA1-A24 (56-64)-reactive bulk CTLs were added at a 2:1 ratio for 6 h in medium containing 10 micro g/mL brefeldin A (Sigma-Aldrich). The brefeldin A was added to inhibit protein secretion during the stimulation. IFN-gamma production by the CDCA1-A24 (56-64)-specific CTLs was measured by intracellular labeling. The cells were stained with a FITC-labeled anti-human IFN-gamma mAb (BioLegend) in combination with a PerCP-labeled anti-human CD8 mAb (BioLegend) and a PE-labeled CDCA1-A24 (56-64)-specific tetramer. Data acquisition was performed on a FACSCalibur (BD Biosciences) and data files were analyzed with FlowJo software (Tree Star, Ashland, Oreg.).

PBMCs (Th cells) = assay: CDCA1-LP specific CD4+ T-cell responses in PBMCs of HNC patients and healthy donors, IFN-gamma ELISPOT
Description: In the ELISPOT assays for HNC patients, after 1 week of cell culture with CDCA1-LPs, the cells were collected, washed, and cultured in ELISPOT plates (1×10^5/well) with CDCA1 (55-78)-LP, CDCA1 (39-64)-LP, or control LP (HIV-LP) for 18 h. The number of CDCA1-LP-specific Th cells expressed as spot-forming cells/10^5 cells was calculated after subtracting control values (background). Responses were scored as positive when the mean number of IFN-gamma spots numbered more than 15 and more than 2-fold over background. The ELISPOT assays on HNC patients' cells were conducted in single, duplicate, or triplicate wells because of the limited number of available cells.
The PBMCs from the heparinized blood of HNC patients were isolated by means of Ficoll-Conray density gradient centrifugation. Fresh PBMCs from HNC patients or healthy donors were cultured with a mixture of CDCA1 (39-64)-LP and CDCA1 (55-78)-LP (10 micro g/mL each) in a final volume of 2 ml AIM-V supplemented with 5% human decomplemented plasma at 37 degrees C. (2×10^6/well, 24-well plates); IL-2 and IL-7 were added on day 0 and day 2. After 1 week of cell culture, the number of antigen-specific IFN-gamma producing T-cells was counted by ELISPOT assay. This study was conducted in a laboratory that operates under exploratory research principles, and was performed using investigative protocols. The inventors acknowledge the recommendations of the Minimal Information About T-cell Assay (MIATA) reporting framework for human T-cell assays (Britten C M et al., Immunity 2012; 37:1-2.).

[2] = HNC patients after vaccination with CDCA1-A24 (56-64) SP

NPKPEVLHMIYMRALQIVYGIRLEHF [CDCA1 (39-64)]
Natural processing of the Th cell epitope by DC from CDCA1-protein (Th cell clones): naturally processed
IFN-gamma secreting tetramer+ CD8+ T-cells [1]: significant proportion
Patients with CDCA1-LP-specific Th cell responses (number) (PBMCs (Th cells); [2]): 12 of 16
Patients with CDCA1-LP-specific Th cell responses (proportion) (PBMCs (Th cells); [2]): 75%
HNC patients with CDCA1-LP-specific immune responses (number) (PBMCs (Th cells); all HNC patients): 14 of 19
HNC patients with CDCA1-LP-specific immune responses (proportion) (PBMCs (Th cells); all HNC patients): 74%
Patients with detectable CDCA1-LP-specific Th cell responses (number) (PBMCs (Th cells); patients before vaccination): 2 of 7
Patients with detectable CDCA1-LP-specific Th cell responses (proportion) (PBMCs (Th cells); patients before vaccination): 29%
